Results from the supplement of paper PMC10307832.

Experiments:
Assay in all cases: relative viability (nuclei count vs DMSO), 5 days (fraction); higher = more cells survive
AZD5582 = compound: C[C@@H](C(=O)N[C@@H](C1CCCCC1)C(=O)N2CCC[C@H]2C(=O)N[C@@H]3[C@@H](CC4=CC=CC=C34)OCC#CC#CCO[C@@H]5CC6=CC=CC=C6[C@@H]5NC(=O)[C@@H]7CCCN7C(=O)[C@H](C8CCCCC8)NC(=O)[C@H](C)NC)NC [AZD5582]
Summary of the method: (§1)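 Acceptance criteria were a control CV below 25% and at least one doubling per plate. Lung cancer cell lines in 1536-well plates got five library-drug doses (not always all listed) √10 apart by pinning and were left 5 days with no medium change. Viability divides treated-well nuclei by vehicle-well nuclei and is the median across plates. Nuclei were counted by MetaXpress from 4× Hoechst images.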

Temozolomide = compound: Cn1nnc2c(C(N)=O)ncn2c1=O [Temozolomide]
Summary of the method: as §1

AZD5582 + Navitoclax = compound: C[C@@H](C(=O)N[C@@H](C1CCCCC1)C(=O)N2CCC[C@H]2C(=O)N[C@@H]3[C@@H](CC4=CC=CC=C34)OCC#CC#CCO[C@@H]5CC6=CC=CC=C6[C@@H]5NC(=O)[C@@H]7CCCN7C(=O)[C@H](C8CCCCC8)NC(=O)[C@H](C)NC)NC [AZD5582] + CC1(C)CCC(c2ccc(Cl)cc2)=C(CN2CCN(c3ccc(C(=O)NS(=O)(=O)c4ccc(N[C@H](CCN5CCOCC5)CSc5ccccc5)c(S(=O)(=O)C(F)(F)F)c4)cc3)CC2)C1 [Navitoclax] (partner 0.5 µM)
Summary of the method: (§2)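 For relative viability, nuclei counts in treated wells were divided by those in vehicle wells. Lung cancer cell lines had been pin-tool dosed in 1536-well plates the day after seeding and cultured for 5 days, then fixed and stained in one step (final 0.05% Triton X-100, 1% formaldehyde, 1 ug/ml Hoechst) and imaged at 4×. Doses were one drug alone or a fixed anchor-drug dose plus five library-drug doses (not always all listed) in √10 steps, and values are duplicate-plate medians.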

AZD5582 + Foretinib = compound: C[C@@H](C(=O)N[C@@H](C1CCCCC1)C(=O)N2CCC[C@H]2C(=O)N[C@@H]3[C@@H](CC4=CC=CC=C34)OCC#CC#CCO[C@@H]5CC6=CC=CC=C6[C@@H]5NC(=O)[C@@H]7CCCN7C(=O)[C@H](C8CCCCC8)NC(=O)[C@H](C)NC)NC [AZD5582] + COc1cc2c(Oc3ccc(NC(=O)C4(C(=O)Nc5ccc(F)cc5)CC4)cc3F)ccnc2cc1OCCCN1CCOCC1 [Foretinib] (partner 0.25 µM)
Summary of the method: as §2

Cell Line | relative viability (AZD5582; 0.001581 µM) | relative viability (AZD5582; 0.005 µM) | relative viability (AZD5582; 0.01581 µM) | relative viability (AZD5582; 0.05 µM) | relative viability (Temozolomide; 0.2 µM) | relative viability (Temozolomide; 0.6325 µM) | relative viability (Temozolomide; 2 µM) | relative viability (Temozolomide; 6.325 µM) | relative viability (Temozolomide; 20 µM) | relative viability (AZD5582 + Navitoclax; first compound 0.001581 µM) | relative viability (AZD5582 + Navitoclax; first compound 0.005 µM) | relative viability (AZD5582 + Navitoclax; first compound 0.01581 µM) | relative viability (AZD5582 + Navitoclax; first compound 0.05 µM) | relative viability (AZD5582 + Foretinib; first compound 0.001581 µM) | relative viability (AZD5582 + Foretinib; first compound 0.005 µM) | relative viability (AZD5582 + Foretinib; first compound 0.01581 µM) | relative viability (AZD5582 + Foretinib; first compound 0.05 µM)
LOU-NH91 | 0.924 | 0.944 | 0.882 | 0.925 | 0.856 | 0.979 | 0.993 | 0.926 | 0.786 | 0.652 | 0.724 | 0.704 | 0.678 | 0.858 | 0.861 | 0.934 | 0.949
NCI-H358 | 0.915 | 1.17 | 0.944 | 0.972 | 0.855 | 1.02 | 1 | 0.904 | 0.777 |  |  |  |  | 0.684 | 0.938 | 0.779 | 0.626
NCI-H522 | 0.841 | 1 | 0.957 | 0.795 | 0.842 | 0.985 | 1.02 | 0.998 | 0.915 |  |  |  |  |  |  |  | 
NCI-H650 | 0.842 | 0.982 | 0.542 | 0.564 | 1.01 | 0.975 | 1.02 | 0.974 | 0.913 |  |  |  |  | 1 | 0.958 | 0.91 | 0.794
NCI-H661 | 0.984 | 1 | 0.984 | 1.07 | 0.993 | 0.935 | 1.04 | 0.947 | 0.843 |  |  |  |  | 0.954 | 0.982 | 1.03 | 0.98
NCI-H1563 | 0.957 | 0.936 | 0.836 | 1.07 | 0.903 | 0.937 | 0.999 | 0.99 | 0.993 |  |  |  |  | 0.897 | 0.958 | 0.894 | 0.924
NCI-H1623 | 1.03 | 1.08 | 0.995 | 0.95 |  | 1.18 | 1.04 | 0.979 | 0.66 |  |  |  |  | 0.831 | 0.971 | 0.917 | 0.888
NCI-H1648 | 0.607 | 0.894 | 0.554 | 0.824 |  | 0.889 | 0.903 | 0.746 | 0.893 |  |  |  |  |  |  |  | 
NCI-H1792 | 0.754 | 0.971 | 0.712 | 1.21 | 1.22 | 1.02 | 1.07 | 0.854 | 1.07 | 0.608 | 0.632 | 0.578 | 0.836 |  |  |  | 
NCI-H2342 | 0.938 | 1.01 | 0.917 | 1.07 | 0.827 | 0.991 | 1.06 | 1.03 | 0.912 |  |  |  |  | 1.04 | 1.11 | 1.07 | 1.27
SW 900 | 0.628 | 0.851 | 0.684 | 0.466 | 1.07 | 1.1 | 0.984 | 0.772 | 0.793 |  |  |  |  | 0.866 | 0.666 | 0.895 | 0.451
